We go through 32 molecules from US8846704B2, “Thiopyrimidine-based compounds and uses thereof” (YM Biosciences Austraila Pty Ltd, priority 2007, dated 2014).

SMILES strings stand for the structures. Some results are limits rather than exact numbers.

The target of this test is T1, BaF3 TELJAK3 cells (Homo sapiens, UniProt P52333).
T1 construct: fused on or other part: TEL (ETV6) N-terminal part, coding nucleotides 1-487, serves as the oligomerising partner; It is fused through a Sal I site to the JAK3 kinase domain and expressed from pTRE2 in BaF3 cells bearing pTET-off; P41212 (Transcription factor ETV6)
T1 sequence (P52333 1-1124): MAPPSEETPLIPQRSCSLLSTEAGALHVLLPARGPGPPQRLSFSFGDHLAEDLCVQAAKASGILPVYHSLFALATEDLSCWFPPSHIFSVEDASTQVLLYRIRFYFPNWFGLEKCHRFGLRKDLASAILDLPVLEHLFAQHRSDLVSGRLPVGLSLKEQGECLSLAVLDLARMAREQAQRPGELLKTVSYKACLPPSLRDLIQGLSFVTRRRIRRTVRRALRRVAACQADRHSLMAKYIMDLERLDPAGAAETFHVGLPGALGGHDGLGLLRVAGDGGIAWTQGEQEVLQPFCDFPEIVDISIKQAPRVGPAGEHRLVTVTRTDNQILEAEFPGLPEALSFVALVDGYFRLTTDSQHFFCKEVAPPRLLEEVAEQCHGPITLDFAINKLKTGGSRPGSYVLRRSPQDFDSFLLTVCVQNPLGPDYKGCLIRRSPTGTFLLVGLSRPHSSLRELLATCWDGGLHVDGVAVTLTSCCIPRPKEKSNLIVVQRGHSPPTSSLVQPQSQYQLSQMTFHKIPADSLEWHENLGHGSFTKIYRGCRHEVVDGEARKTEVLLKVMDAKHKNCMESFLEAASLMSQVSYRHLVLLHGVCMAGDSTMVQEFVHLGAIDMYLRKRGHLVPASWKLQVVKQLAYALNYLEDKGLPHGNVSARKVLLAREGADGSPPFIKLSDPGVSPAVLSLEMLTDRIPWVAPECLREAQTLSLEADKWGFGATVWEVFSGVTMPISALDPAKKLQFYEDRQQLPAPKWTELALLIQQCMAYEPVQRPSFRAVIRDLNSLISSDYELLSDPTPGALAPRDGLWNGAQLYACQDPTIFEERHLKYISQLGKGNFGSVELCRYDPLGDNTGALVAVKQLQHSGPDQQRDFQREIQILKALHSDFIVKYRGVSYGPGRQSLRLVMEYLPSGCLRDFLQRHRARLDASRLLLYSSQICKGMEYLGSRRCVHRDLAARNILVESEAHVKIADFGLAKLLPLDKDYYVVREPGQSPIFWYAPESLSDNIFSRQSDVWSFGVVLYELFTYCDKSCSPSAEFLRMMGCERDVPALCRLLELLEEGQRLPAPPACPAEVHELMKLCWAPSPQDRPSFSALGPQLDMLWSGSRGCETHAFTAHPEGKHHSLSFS
Briefly: Cellular screening, BaF3 TEL:JAK3 cells, Alamar Blue. The settings on record: 40 hr, read-out: BafT_J3 IC50_nM. Format: cell-based. Summed up: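 Alamar Blue signal at 544 nm, developed for 4–6 h, measured viability after 40 h of compound treatment at 37 °C, 5% CO2. Cells were growth-factor-independent BaF3 lines transfected with a TEL/JAK3 kinase-domain fusion under tet-off control. They were cultured in DMEM, 10% Tet-approved FBS, lacking WEHI 3B conditioned medium.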
Take `C=CC(=O)Nc1ccc(Sc2ccnc(Nc3ccccc3O)n2)cc1` [Compound 279, N-(4-(2-(2-hydroxyphenylao)pyrimidin-4-ylthio)phenyl)acrylamide]: the GI50 was below 20 µM.
In the case of `C=CC(=O)Nc1ccc(Sc2nc(Nc3cccc(O)c3)ncc2C)cc1` [Compound 281, N-(4-(2-(3-hydroxyphenylao)-5-methylpyrimidin-4-ylthio)phenyl)acrylamide], the GI50 was below 1 µM.
As to `C=CC(=O)Nc1ccc(Sc2nc(Nc3ccc(O)cc3)ncc2C)cc1` [Compound 282, N-(4-(2-(4-hydroxyphenylao)-5-methylpyrimidin-4-ylthio)phenyl)acrylamide], the GI50 was below 1 µM.
Under `C=CC(=O)Nc1ccc(Sc2nc(Nc3ccc(OC)c(O)c3)ncc2C)cc1` [Compound 283, N-(4-(2-(3-hydroxy-4-methoxyphenylao)-5-methylpyrimidin-4-ylthio)phenyl)acrylamide] stands below 1 µM; under `C=CC(=O)Nc1ccc(Sc2nc(Nc3ccc4c(c3)OCO4)ncc2C)cc1` [Compound 284, N-(4-(2-(benzo[d][1,3]dioxol-5-ylao)-5-methylpyrimidin-4-ylthio)phenyl)acrylamide], below 1 µM.
Under `C=CC(=O)Nc1ccc(Sc2nc(Nc3ccccc3O)ncc2C)cc1` [Compound 287, N-(4-(2-(2-hydroxyphenylao)-5-methylpyrimidin-4-ylthio)phenyl)acrylamide] stands below 20 µM; under `C=CC(=O)Nc1ccc(Sc2nc(Nc3cccc(OC(F)(F)F)c3)ncc2C)cc1` [Compound 289, N-(4-(5-methyl-2-(3-(trifluoromethoxy)phenylao)pyrimidin-4-ylthio)phenyl)acrylamide], below 5 µM.
Regarding `C=CC(=O)Nc1ccc(Sc2nc(Nc3ccc(N4CCC(C(=O)OCC)CC4)cc3)ncc2C)cc1` [Compound 292, ethyl 1-(4-(4-(4-acrylamidophenylthio)-5-methylpyrimidin-2-ylao)phenyl)piperidine-4-carboxylate], the GI50 was below 5 µM.
`C=CC(=O)Nc1ccc(Sc2nc(Nc3ccc(CNS(C)(=O)=O)cc3)ncc2C)cc1` [Compound 294, N-(4-(5-methyl-2-(4-(methylsulfonamidomethyl)phenylao)pyrimidin-4-ylthio)phenyl)acrylamide]: the GI50 was below 1 µM.
Under `C=CC(=O)Nc1ccc(Sc2nc(Nc3ccc(N4CCS(=O)(=O)CC4)cc3)ncc2C)cc1` [Compound 298, N-{4-[(2-{[4-(1,1-dioxo-1λ^6,4-thiomorpholin-4-yl)phenyl]ao}-5-methylpyrimidin-4-yl)sulfanyl]phenyl}prop-2-enamide] stands below 1 µM.
For `C=CC(=O)Nc1ccc(Sc2nc(Nc3cccc(OCCCO)c3)ncc2C)cc1` [Compound 301, N-(4-(2-(3-(3-hydroxypropoxy)phenylao)-5-methylpyrimidin-4-ylthio)phenyl)acrylamide] the value was below 1 µM; for `C=CC(=O)Nc1ccc(Sc2nc(Nc3ccc(N4CCOCC4)cc3)ncc2-c2ccccc2)cc1` [Compound 307, N-(4-(2-(4-morpholinophenylao)-5-phenylpyrimidin-4-ylthio)phenyl)acrylamide], below 20 µM.
For `Nc1ccc(Sc2nc(Nc3ccc(N4CCOCC4)cc3)ncc2I)cc1` [Compound 309, 4-(4-aophenylthio)-5-iodo-N-(4-morpholinophenyl)pyrimidin-2-ae] the value was below 5 µM; for `C=CC(=O)Nc1ccc(Sc2nc(Nc3ccc(N4CCOCC4)cc3)ncc2I)cc1` [Compound 313, N-(4-(5-iodo-2-(4-morpholinophenylao)pyrimidin-4-ylthio)phenyl)acrylamide], below 1 µM; for `C=CC(=O)Nc1ccc(Sc2nc(Nc3ccc(N4CCOCC4)cc3)ncc2Cl)cc1` [Compound 315, N-(4-(5-chloro-2-(4-morpholinophenylao)pyrimidin-4-ylthio)phenyl)acrylmide], below 1 µM.
In the case of `Nc1ccc(Sc2nc(Nc3ccc(N4CCOCC4)cc3)ncc2Cl)cc1` [Compound 318, 4-(4-aophenylthio)-5-chloro-N-(4-morpholinophenyl)pyrimidin-2-ae], the GI50 is above 20 µM.
For the molecule `C=C(CN1CCOCC1)C(=O)Nc1cccc(Sc2ccnc(Nc3ccc(N4CCOCC4)cc3)n2)c1` [Compound 328, 2-(morpholinomethyl)-N-(3-(2-(4-morpholinophenylao)pyrimidin-4-ylthio)phenyl)acrylamide], the GI50 is below 5 µM.
Take `O=C(CCl)Nc1cccc(Sc2ccnc(Nc3ccc(N4CCOCC4)cc3)n2)c1` [Compound 332, 2-chloro-N-(3-(2-(4-morpholinophenylao)pyrimidin-4-ylthio)phenyl)acetamide]: the GI50 is below 1 µM.
Under `O=C(/C=C/Cl)Nc1ccc(Sc2ccnc(Nc3ccc(N4CCOCC4)cc3)n2)cc1` [Compound 342, (E)-3-chloro-N-(4-(2-(4-morpholinophenylao)pyrimidin-4-ylthio)phenyl)acrylamide] stands below 5 µM; under `Cc1cnc(Nc2ccc(N3CCOCC3)cc2)nc1Sc1ccc(NC(=O)/C=C/Cl)cc1` [Compound 343, (E)-3-chloro-N-(4-(5-methyl-2-(4-morpholinophenylao)pyrimidin-4-ylthio)phenyl)acrylamide], below 5 µM; under `CCC(=O)Nc1ccc(Sc2nc(Nc3ccc(N4CCOCC4)cc3)ncc2Cl)cc1` [Compound 347, N-(4-(5-chloro-2-(4-morpholinophenylao)pyrimidin-4-ylthio)phenyl)propionamide], below 1 µM.
In the case of `C=CC(=O)Nc1ccc(Sc2ccnc(Nc3cccc(Cl)c3)n2)cc1` [Compound 348, N-(4-(2-(3-chlorophenylao)pyrimidin-4-ylthio)phenyl)acrylamide], the GI50 is below 5 µM.
As to `C=CC(=O)Nc1ccc(Sc2ccnc(Nc3ccccc3)n2)cc1` [Compound 350, N-(4-(2-(phenylao)pyrimidin-4-ylthio)phenyl)acrylamide], the GI50 was below 20 µM.
In the case of `C=CC(=O)Nc1ccc(Sc2ccnc(Nc3ccc(S(N)(=O)=O)cc3)n2)cc1` [Compound 352, N-(4-(2-(4-sulfamoylphenylao)pyrimidin-4-ylthio)phenyl)acrylamide], the GI50 is below 20 µM.
Consider `C=CC(=O)Nc1ccc(Sc2ccnc(Nc3ccc(Cl)cc3)n2)cc1` [Compound 353, N-(4-(2-(4-chlorophenylao)pyrimidin-4-ylthio)phenyl)acrylamide], for which the GI50 was below 5 µM.
Under `C=CC(=O)Nc1ccc(Sc2ccnc(Nc3ccc(F)c(C#N)c3)n2)cc1` [Compound 354, N-(4-(2-(3-cyano-4-fluorophenylao)pyrimidin-4-ylthio)phenyl)acrylamide] stands below 20 µM; under `C=CC(=O)Nc1ccc(Sc2ccnc(Nc3cccc(N4CCCC4)c3)n2)cc1` [Compound 355, N-(4-(2-(3-(pyrrolidin-1-yl)phenylao)pyrimidin-4-ylthio)phenyl)acrylamide], below 5 µM; under `C=CC(=O)Nc1ccc(Sc2ccnc(Nc3cccc(C(=O)OC)c3)n2)cc1` [Compound 356, methyl 3-(4-(4-acrylamidophenylthio)pyrimidin-2-ylao)benzoate], below 5 µM.
On to `C=CC(=O)Nc1ccc(Sc2ccnc(Nc3ccc(C(=O)OC)cc3)n2)cc1` [Compound 357, methyl 4-(4-(4-acrylamidophenylthio)pyrimidin-2-ylao)benzoate], for which the GI50 was below 5 µM.
On to `C=CC(=O)Nc1ccc(Sc2ccnc(Nc3cccc([N+](=O)[O-])c3)n2)cc1` [Compound 361, N-(4-(2-(3-nitrophenylao)pyrimidin-4-ylthio)phenyl)acrylamide], for which the GI50 is below 5 µM.
In the case of `C=CC(=O)Nc1ccc(Sc2ccnc(Nc3cccc(S(N)(=O)=O)c3)n2)cc1` [Compound 364, N-(4-(2-(3-sulfamoylphenylao)pyrimidin-4-ylthio)phenyl)acrylamide], the GI50 is below 1 µM.
For the molecule `C=CC(=O)Nc1ccc(Sc2ccnc(Nc3cccc(S(=O)(=O)N4CCN(C)CC4)c3)n2)cc1` [Compound 365, N-(4-(2-(3-(4-methylpiperazin-1-ylsulfonyl)phenylao)pyrimidin-4-ylthio)phenyl)acrylamide], the GI50 is below 5 µM.
